Calls of active or inactive are those of the source. No cut-off for these calls is given here.
Columns and labels:
[1] = Growth inhibition of monkey COS1 cells at 5 uM after 48 hrs by MTT assay; format: cell-based, Macaca mulatta; conditions: rhesus monkey, cos-1, 48 h
[2] = Growth inhibition of monkey COS1 cells at 1.25 uM after 48 hrs by MTT assay; format: cell-based, Macaca mulatta; conditions: rhesus monkey, cos-1, 48 h
[3] = Growth inhibition of monkey COS1 cells at 2.5 uM after 48 hrs by MTT assay; format: cell-based, Macaca mulatta; conditions: rhesus monkey, cos-1, 48 h
HT-29 [4] = assay: Antiproliferative activity against human HT29 cells at 5 uM after 24 hrs by MTT assay; format: functional, cell-based
HT-29 [5] = assay: Induction of apoptosis in human HT29 cells at 5 uM; format: functional, cell-based
[6] = Growth inhibition of monkey COS1 cells at 0.63 uM after 48 hrs by MTT assay; format: cell-based, Macaca mulatta; conditions: rhesus monkey, cos-1, 48 h

SMILES | Activity [1] | Activity [2] | Activity [3] | Activity (HT-29 [4]) | Activity (HT-29 [5]) | Activity [6]
COC(=O)C(O)(CC(=O)O)CC(=O)O | Non-toxic | Non-toxic | Non-toxic | Active | Active | Non-toxic
CC[C@@]1(O)C(=O)OCc2c1cc1n(c2=O)Cc2cc3ccccc3nc2-1 |  |  |  |  | Active | 
CCC(CC[C@@H](C)[C@H]1CC[C@H]2[C@@H]3CC=C4C[C@@H](O)CC[C@]4(C)[C@H]3CC[C@]12C)C(C)C (single isomer, unassigned) [BETA-SITOSTEROL] | Non-toxic | Non-toxic | Non-toxic | Active | Active | Non-toxic

From ChEMBL document CHEMBL1149588, “Inhibition of colon cancer cell growth and antioxidant activity of bioactive compounds from Poncirus trifoliata (L.) Raf” (Bioorg Med Chem, 2007)
